Reference: patent US20220204539A1, “CD73 INHIBITORS” (BioArdis LLC, priority 2019, published 2022)

What was measured:
[1] = target: T1, Recombinant Human 5′-Nucleotidase (CD73) (Homo sapiens, UniProt P21589); experiment: CD73 Enzyme Assay; assay type: biochemical; settings: human CD73 0.5 nM, AMP 30 μM, PiColorLock phosphate detection; read-out: Potency (IC50, CD73 enzyme assay)
T1 construct: CHO derived CD73 (Trp27-Lys547), with a C-terminal 6-His tag; 6-His (C); purchased R&D 5795-EN; host or cells: CHO
T1 sequence (P21589 27-547): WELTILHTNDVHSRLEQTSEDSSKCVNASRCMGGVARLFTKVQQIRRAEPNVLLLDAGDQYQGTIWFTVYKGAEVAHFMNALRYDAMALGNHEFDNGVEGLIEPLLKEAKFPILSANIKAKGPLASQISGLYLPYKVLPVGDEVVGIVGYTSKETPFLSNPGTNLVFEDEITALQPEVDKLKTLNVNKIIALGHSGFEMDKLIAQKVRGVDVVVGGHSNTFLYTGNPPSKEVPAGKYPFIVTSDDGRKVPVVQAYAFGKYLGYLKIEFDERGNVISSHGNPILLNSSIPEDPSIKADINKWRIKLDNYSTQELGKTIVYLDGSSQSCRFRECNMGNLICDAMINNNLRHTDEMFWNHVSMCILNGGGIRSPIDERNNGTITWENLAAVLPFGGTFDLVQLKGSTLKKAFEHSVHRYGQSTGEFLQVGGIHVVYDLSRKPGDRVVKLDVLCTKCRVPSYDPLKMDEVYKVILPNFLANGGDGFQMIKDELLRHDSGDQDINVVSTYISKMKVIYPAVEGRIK
Summary of the method: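 Human CD73 (CHO-derived Trp27-Lys547, His-tagged; 0.5 nM final) was preincubated with compound for 15 min at 25° C. in Tris pH 7.5 buffer with MgCl2. It then reacted with 30 μM AMP for 20 min at 37° C., and released phosphate was read by malachite green absorbance at 635 nm. IC50 came from four-parameter fits against enzyme and no-enzyme controls.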

[2] = target: T2, Cell surface CD73 of U87 MG human glioblastoma cells (Homo sapiens, UniProt P21589); experiment: CD73 Cellular Assay; assay type: cell-based; settings: 5000 cells per well, 30 μM AMP substrate, read-out: Potency (IC50, CD73 cellular assay)
T2 construct: Cell surface CD73 catalyzes the conversion of adenosine monophosphate (AMP) to adenosine and inorganic phosphate; endogenous in cells; host or cells: U87 MG human glioblastoma cells
T2 sequence (P21589 27-549): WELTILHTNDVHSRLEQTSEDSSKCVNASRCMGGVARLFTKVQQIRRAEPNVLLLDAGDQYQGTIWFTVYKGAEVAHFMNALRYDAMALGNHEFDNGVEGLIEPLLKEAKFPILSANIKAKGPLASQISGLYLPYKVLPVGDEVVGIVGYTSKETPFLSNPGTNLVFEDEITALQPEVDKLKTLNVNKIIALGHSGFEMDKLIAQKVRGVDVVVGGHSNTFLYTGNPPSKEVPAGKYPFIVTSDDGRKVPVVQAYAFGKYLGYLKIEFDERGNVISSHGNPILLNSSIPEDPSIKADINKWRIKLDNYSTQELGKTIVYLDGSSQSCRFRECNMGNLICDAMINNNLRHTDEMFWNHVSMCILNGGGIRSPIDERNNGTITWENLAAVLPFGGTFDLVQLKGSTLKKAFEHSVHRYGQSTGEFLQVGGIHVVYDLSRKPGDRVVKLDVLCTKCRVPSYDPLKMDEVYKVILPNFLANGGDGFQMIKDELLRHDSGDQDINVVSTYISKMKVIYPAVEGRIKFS
Summary of the method: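 U87 MG cells (5000/well) preincubated with compound 30 min at 37 °C, 5% CO2, in HEPES-buffered saline pH 7.4 with 0.5% DMSO, then 30 μM AMP (final) for 50 min. Released phosphate in supernatant read colorimetrically at 635 nm; IC50 from four-parameter logistic fit versus cells-plus-substrate and cells-only controls.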

[3] = tested on: CT-26 murine colon carcinoma; experiment: subcutaneous CT-26 murine colon carcinoma syngeneic model, combination therapy; assay type: in vivo; settings: combination with anti-mPDI antibody 10 mg/kg i.p. twice weekly, 4 doses; compound 10 mg/kg iv once a day from day 6 post implant; CT-26 in BALB/c female mice
Procedure: Some compounds were evaluated preclinically for in vivo therapeutic efficacy as single agents or in combination with other agents. Compounds of the invention show potent anti-tumor effects when dosed in combination with, for example, an anti-mPDI antibody as evidenced by reducing tumor volume in a subcutaneous CT-26 murine colon carcinoma syngeneic model in BALB/c female mice. CT-26 tumor cells were implanted subcutaneously into BALB/c female mice for each experiment. Anti-mPDl antibody (10 mg/kg) was dosed i.p. starting on study day 6 post implant twice weekly for a total of 4 doses. Compound No. 65 (10 mg/kg) or vehicle was administered iv once a day starting on day 6 post implant.

Row | IC50 [1] | IC50 [2] | SMILES | tumor volume [3]
1 | < 0.01 µM | < 0.001 µM | O=P(O)(O)CP(=O)(O)OC[C@H]1O[C@@H](c2cnc3c(N4CCCC[C@H]4c4ccccc4)nc(Cl)nn23)[C@H](O)[C@@H]1O [Compound 56, (((((2R,3S,4R,1S)-5-(2-chloro-4-((S)-2-phenylpiperidin-1-yl)imidazo[2,1-f][1,2,4]triazin-7-yl)-3,4-dihydroxytetrahydrofuran-2-yl)methoxy)(hydroxy)phosphoryl)methyl)phosphonic Acid] | –
2 | < 0.01 µM | < 0.001 µM | N#Cc1nc(NC2CCCC2)c2ncc([C@@H]3O[C@H](COP(=O)(O)CP(=O)(O)O)[C@@H](O)[C@H]3O)n2n1 [Compound 62, (((((2R,3S,4R,5S)-5-(2-cyano-4-(cyclopentylamino)imidazo[2,1-f][1,2,4]triazin-7-yl)-3,4-dihydroxytetrahydrofuran-2-yl)methoxy)(hydroxy)phosphoryl)methyl)phosphonic Acid] | –
3 | < 0.01 µM | < 0.001 µM | O=P(O)(O)CP(=O)(O)OC[C@H]1O[C@@H](c2cnc3c(N[C@H]4CCc5ccccc54)nc(Cl)nn23)[C@H](O)[C@@H]1O [Compound 63, [({[(2R,3S,4R,5S)-5-{2-chloro-4-[(1S)-2,3-dihydro-1H-inden-1-ylamino]imidazo[2,1-f][1,2,4]triazin-7-yl}-3,4-dihydroxyoxolan-2-yl]methoxy}(hydroxy)phosphoryl)methyl] phosphonic acid] | –
4 | < 0.01 µM | < 0.001 µM | O=P(O)(O)CP(=O)(O)OC[C@H]1O[C@@H](c2cnc3c(N4CCC[C@H]4c4ccccc4)nc(Cl)nn23)[C@H](O)[C@@H]1O [Compound 64, (((((2R,3S,4R,1S)-5-(2-chloro-4-((S)-2-phenylpyrrolidin-1-yl)imidazo[2,1-f][1,2,4]triazin-7-yl)-3,4-dihydroxytetrahydrofuran-2-yl)methoxy)(hydroxy)phosphoryl)methyl)phosphonic Acid] | –
5 | < 0.01 µM | < 0.001 µM | O=P(O)(O)CP(=O)(O)OC[C@H]1O[C@@H](c2cnc3c(N4CCCC4)nc(Cl)nn23)[C@H](O)[C@@H]1O [Compound 65, [({[(2R,3S,4R,5S)-5-[2-chloro-4-(pyrrolidin-1-yl)imidazo[2,1-f][1,2,4]triazin-7-yl]-3,4-dihydroxyoxolan-2-yl]methoxy}(hydroxy)phosphoryl)methyl]phosphonic Acid] | reduction in tumor volume
6 | < 0.01 µM | < 0.001 µM | NC(=O)c1nc(NC2CCCC2)c2ncc([C@@H]3O[C@H](COP(=O)(O)CP(=O)(O)O)[C@@H](O)[C@H]3O)n2n1 [Compound 66, (((((2R,3S,4R,5S)-5-(2-carbamoyl-4-(cyclopentylamino)imidazo[2,1-f][1,2,4]triazin-7-yl)-3,4-dihydroxytetrahydrofuran-2-yl)methoxy)(hydroxy)phosphoryl)methyl)phosphonic Acid] | –
7 | < 0.01 µM | 0.001 to 0.0099 µM | O=P(O)(O)CP(=O)(O)OC[C@H]1O[C@@H](c2cnc3c(N4CC5CCCC5C4)nc(Cl)nn23)[C@@H](F)[C@@H]1O (stereo partly drawn) [Compound 72, (((((2R,3R,4S,5S)-5-(2-chloro-4-(hexahydrocyclopenta[c]pyrrol-2(1H)-yl)imidazo[2,1-f][1,2,4]triazin-7-yl)-4-fluoro-3-hydroxytetrahydrofuran-2-yl)methoxy)(hydroxy)phosphoryl)methyl) phosphonic Acid] | –
8 | 0.01 to 0.099 µM | 0.001 to 0.0099 µM | O=P(O)(O)CP(=O)(O)OC[C@H]1OC(c2cnc3c(N4CCCC4)nc(Cl)nn23)[C@@H](F)[C@@H]1O (stereo partly drawn) [Compound 73, (((((2R,3R,4S)-5-(2-chloro-4-(pyrrolidin-1-yl)imidazo[2,1-f][1,2,4]triazin-7-yl)-4-fluoro-3-hydroxytetrahydrofuran-2-yl)methoxy)(hydroxy)phosphoryl)methyl)phosphonic Acid] | –
9 | 0.01 to 0.099 µM | 0.01 to 0.0999 µM | C[C@H](Nc1nc(Cl)nn2c(C3O[C@H](COP(=O)(O)CP(=O)(O)O)[C@@H](O)[C@@H]3F)cnc12)c1ccccc1F (stereo partly drawn) [Compound 74, (((((2R,3R,4S)-5-(2-chloro-4-(((S)-1-(2-fluorophenyl)ethyl)amino)imidazo[2,1-f][1,2,4]triazin-7-yl)-4-fluoro-3-hydroxytetrahydrofuran-2-yl)methoxy)(hydroxy)phosphoryl)methyl)phosphonic Acid] | –
10 | 0.01 to 0.099 µM | 0.001 to 0.0099 µM | O=P(O)(O)CP(=O)(O)OC[C@H]1O[C@@H](c2cnc3c(N4CCC(F)(F)C4)nc(Cl)nn23)[C@@H](F)[C@@H]1O [Compound 75, (((((2R,3R,4S,5S)-5-(2-chloro-4-(3,3-difluoropyrrolidin-1-yl)imidazo[2,1-f][1,2,4]triazin-7-yl)-4-fluoro-3-hydroxytetrahydrofuran-2-yl)methoxy)(hydroxy)phosphoryl)methyl)phosphonic Acid] | –
